Laboratory results from US9181197B2 (priority 2008, dated 2015).
Several values for one entry are separate records, joined by “and”; a condition that tells them apart may be missing. Equal values may be shown once. Entries after “also recorded” stand apart in the source; their conditions may differ. Read-outs that look alike come from different tables or passages of the source.

What was measured:
[1] = system: rats; conditions: rat, in vivo, iv
[2] = system: rats; experiment: heart rate and blood pressure in rats at equianesthetic doses; conditions: for increase in heart rate shortly after injection / duration of significant effect on mean blood pressure / maximum decrease in mean blood pressure relative to baseline: IV, twice ED50 for LORR; for maximum decrease in mean blood pressure relative to baseline: n=3
[3] = system: rats; experiment: loss of righting reflex (LORR) in rats after IV bolus; format: in vivo; conditions: for ED50: Rattus norvegicus; for ED50 / slope of duration of LORR versus logarithm of anesthetic dose: rats, IV bolus; for anesthetic toxicity in rats: highest doses
Procedure: Rats were briefly restrained in a 3 inch diameter, 9 inch long acrylic chamber with a tail exit port. The desired dose of anesthetic was injected through a lateral tail vein catheter followed by an approximately 1 ml normal saline flush. Immediately after injection, rats were removed from the restraint device and turned supine. […] A stop-watch was used to measure the duration of LORR, which was defined as the time from drug injection until the animal spontaneously righted itself. The ED50 for LORR upon bolus anesthetic administration was determined from the anesthetic dose-dependence of LORR.

[4] = system: humans; conditions: Arden et al. 1986; cited from earlier work
[5] = biological target: T1, Human GABAA receptors composed of α1β2γ2L subunits (Homo sapiens, UniProt P14867+P47870); experiment: two-microelectrode voltage clamp of GABAA receptor currents in Xenopus oocytes; format: cell-based; conditions: for enhancement of amplitudes of GABA-evoked currents: EC5-10 GABA, each anesthetic at its anesthetic EC50 (8 μM MOC-(R)-etomidate, 2 μM (R)-etomidate), n=6 oocytes; for direct activation of GABAA receptors: before application of GABA
T1 construct: expressed in transfected cells; host or cells: Xenopus laevis oocytes
T1 sequence (P14867 28-456): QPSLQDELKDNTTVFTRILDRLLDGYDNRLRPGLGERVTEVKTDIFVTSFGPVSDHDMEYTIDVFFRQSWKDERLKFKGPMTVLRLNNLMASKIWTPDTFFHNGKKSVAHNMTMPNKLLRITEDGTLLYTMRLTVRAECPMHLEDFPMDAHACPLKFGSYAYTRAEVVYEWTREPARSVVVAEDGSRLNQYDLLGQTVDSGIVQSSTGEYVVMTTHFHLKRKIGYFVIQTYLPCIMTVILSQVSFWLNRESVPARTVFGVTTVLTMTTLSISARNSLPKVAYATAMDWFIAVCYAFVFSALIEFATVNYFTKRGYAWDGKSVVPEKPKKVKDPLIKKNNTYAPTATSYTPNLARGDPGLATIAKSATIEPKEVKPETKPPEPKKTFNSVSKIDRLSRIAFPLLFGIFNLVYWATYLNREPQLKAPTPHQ
T1 sequence (P47870 25-512 limits assumed): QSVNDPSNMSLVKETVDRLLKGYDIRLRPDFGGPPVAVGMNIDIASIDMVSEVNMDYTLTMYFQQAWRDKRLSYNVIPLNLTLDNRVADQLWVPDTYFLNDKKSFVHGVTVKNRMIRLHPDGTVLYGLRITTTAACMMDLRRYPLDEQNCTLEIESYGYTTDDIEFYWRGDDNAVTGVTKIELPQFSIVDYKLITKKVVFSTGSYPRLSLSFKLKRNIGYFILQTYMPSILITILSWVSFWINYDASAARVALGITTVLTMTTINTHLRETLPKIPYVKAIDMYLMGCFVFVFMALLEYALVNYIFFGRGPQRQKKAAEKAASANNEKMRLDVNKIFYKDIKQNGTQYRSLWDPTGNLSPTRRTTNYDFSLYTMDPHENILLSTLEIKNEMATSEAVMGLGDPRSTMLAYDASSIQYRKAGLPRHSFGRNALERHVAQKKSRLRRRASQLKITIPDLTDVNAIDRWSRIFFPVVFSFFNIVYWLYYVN
T1 sequence (P18507 40-475 partner): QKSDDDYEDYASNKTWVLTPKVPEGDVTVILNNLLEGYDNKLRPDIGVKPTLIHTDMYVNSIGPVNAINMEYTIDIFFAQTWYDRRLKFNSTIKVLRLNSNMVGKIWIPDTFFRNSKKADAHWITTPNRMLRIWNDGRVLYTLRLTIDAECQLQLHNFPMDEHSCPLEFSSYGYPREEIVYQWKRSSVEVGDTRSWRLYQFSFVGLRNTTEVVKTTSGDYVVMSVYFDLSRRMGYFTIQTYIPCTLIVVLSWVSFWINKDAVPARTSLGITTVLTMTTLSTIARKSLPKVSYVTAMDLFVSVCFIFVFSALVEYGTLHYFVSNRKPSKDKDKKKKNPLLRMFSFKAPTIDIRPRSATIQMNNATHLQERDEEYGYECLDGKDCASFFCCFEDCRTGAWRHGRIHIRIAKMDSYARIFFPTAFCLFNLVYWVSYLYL

[6] = system: patients; conditions: cited from earlier work
[7] = system: Xenopus laevis tadpoles; conditions: Husain et al. 2003, read-out: EC50 / free-aqueous concentration inducing loss of righting reflexes in tadpoles; cited from earlier work
[8] = system: rats; experiment: ACTH1-24-stimulated serum corticosterone in rats (adrenocortical function); conditions: 30 min after equianesthetic dose
[9] = system: Xenopus laevis tadpoles; experiment: tadpole loss of righting reflex assay
[10] = in-vitro metabolism in pooled human S9 liver fraction; conditions: for half-life at 10 μM: human, s9; for rate of metabolism relative to (R)-etomidate: liver enzymes, S9
[11] = system: animals; conditions: LD50/ED50; cited from earlier work

| Structure (SMILES) | increase in heart rate shortly after injection [2] [BPM] | ED50 [3] [mg/kg] | anesthetic toxicity in rats [3] | slope of duration of LORR versus logarithm of anesthetic dose [3] | enhancement of amplitudes of GABA-evoked currents [5] [%] | direct activation of GABAA receptors [5] | ACTH1-24-stimulated corticosterone concentration versus vehicle [8] | half-life at 10 μM [10] [min] | duration of significant effect on mean blood pressure [2] [s] | maximum decrease in mean blood pressure relative to baseline [2] [mmHg] | therapeutic index [11] | also measured |
| --- | --- | --- | --- | --- | --- | --- | --- | --- | --- | --- | --- | --- |
| CCOC(=O)c1cncn1[C@H](C)c1ccccc1 (stereo in doubt) [(R)-etomidate, ethyl 3-(1-phenylethyl)imidazole-4-carboxylate] | 49±67 | 1 ± 0.03 | no obvious anesthetic toxicity | 27±7 | – | – | – | – | – | – | – | duration of significant effect on mean blood pressure [1]: 6.5 min; maximum decrease in mean blood pressure relative to baseline [1]: −36±11 mmHg |
| CCOC(=O)c1cncn1[C@H](C)c1ccccc1 [(R)-etomidate, ethyl 3-(1-phenylethyl)imidazole-4-carboxylate] | – | – | – | – | 660±240 | evoked small currents | significantly lower; also recorded: significantly reduced | – | – | – | – | free-aqueous concentration inducing loss of responsiveness [4]: ~2 µM; duration of adrenal suppression after single bolus induction dose ([6]; critically ill patients): ≥ 24 h; persistence of adrenal insufficiency after discontinuing prolonged infusion ([6]; doses producing general anesthesia): more than 4 days; EC50 [7]: ~2000 nM and 2000 nM |
| COC(=O)CCOC(=O)c1cncn1[C@H](C)c1ccccc1 [MOC-(R)-etomidate, (R)-3-Methoxy-3-oxopropyl1-(1-phenylethyl)-1H-imidazole-5-carboxylate] | 24±33 | 5.2 ± 1 | no obvious anesthetic toxicity | 2.8±0.4 | 450±130 | evoked small currents | not different from those that had received only vehicle; also recorded: no reduction; also recorded: unchanged versus control | 4.2 | 30 | −11±15 | – | toxicity in tadpoles ([9]; 0.1-128 μM, recovery in fresh oxygenated water): No evidence of toxicity was observed; EC50 ([9]; Xenopus laevis, read-out: anesthetic EC50 (loss of righting reflexes)): 8000 ± 2000 nM; fraction of tadpoles anesthetized ([9]; highest concentrations, 48-128 μM): all tadpoles were anesthetized; percent of original concentration remaining ([10]; by 40 min): < 1%; percent metabolized ([10]; by 40 min, +NADPH, 37° C.): more than 99%; concentration remaining ([10]; by 40 min, start 10 μM): < 100 nM; rate of metabolism relative to (R)-etomidate [10]: at least 100 fold; rate of metabolism relative to (R)-etomidate ([10]; listed as MOC-(R)-Etomidate): > 100 fold; duration of reduction in blood pressure ([2]; summary): 30 s; duration of LORR shorter versus propofol or (R)-etomidate ([3]; equianesthetic doses): ~10 fold; anesthetic potency relative to (R)-etomidate's potency ([3]; two species (tadpoles, rats)): ¼^th-⅕^th |
| O=C1CC2(CCCC2)CC(=O)N1CCCCN1CCN(c2ncccn2)CC1 [buspirone] | – | – | – | – | – | – | – | 15.4 | – | – | – | – |
| CC(C)c1cccc(C(C)C)c1O [propofol] | 64±56 | 4.1 ± 0.3 | no obvious anesthetic toxicity | 22±4 | – | – | – | – | 420 | −51±19 | 3.1 | – |
| CCCC(C)C1(CC)C(=O)NC(=S)NC1=O (stereo not shown) [thiopental] | – | – | – | – | – | – | – | – | – | – | 4.6 | – |
